Results reported in PubChem BioAssay AID1347054 (Pharmacoinformatics Research Group Wien, 2019).
Activity calls are given as the source filed them.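 Rule for the calls: active = clear block of the BCRP drug efflux pump at 10 µM versus solvent-only wells, p under 0.05; inactive = the rest.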

Molecular target: Broad substrate specificity ATP-binding cassette transporter ABCG2 (Homo sapiens) (UniProt Q9UNQ0)
Assay: ABCG2-mediated mitoxantrone transport inhibition – PLB985 cells, flow cytometry (AID 1347054)
Conditions: PLB985-BCRP cells, mitoxantrone accumulation, at 10 µM, active compounds read high

Chain of Broad substrate specificity ATP-binding cassette transporter ABCG2 (Homo sapiens) (Q9UNQ0 whole entry, looked up): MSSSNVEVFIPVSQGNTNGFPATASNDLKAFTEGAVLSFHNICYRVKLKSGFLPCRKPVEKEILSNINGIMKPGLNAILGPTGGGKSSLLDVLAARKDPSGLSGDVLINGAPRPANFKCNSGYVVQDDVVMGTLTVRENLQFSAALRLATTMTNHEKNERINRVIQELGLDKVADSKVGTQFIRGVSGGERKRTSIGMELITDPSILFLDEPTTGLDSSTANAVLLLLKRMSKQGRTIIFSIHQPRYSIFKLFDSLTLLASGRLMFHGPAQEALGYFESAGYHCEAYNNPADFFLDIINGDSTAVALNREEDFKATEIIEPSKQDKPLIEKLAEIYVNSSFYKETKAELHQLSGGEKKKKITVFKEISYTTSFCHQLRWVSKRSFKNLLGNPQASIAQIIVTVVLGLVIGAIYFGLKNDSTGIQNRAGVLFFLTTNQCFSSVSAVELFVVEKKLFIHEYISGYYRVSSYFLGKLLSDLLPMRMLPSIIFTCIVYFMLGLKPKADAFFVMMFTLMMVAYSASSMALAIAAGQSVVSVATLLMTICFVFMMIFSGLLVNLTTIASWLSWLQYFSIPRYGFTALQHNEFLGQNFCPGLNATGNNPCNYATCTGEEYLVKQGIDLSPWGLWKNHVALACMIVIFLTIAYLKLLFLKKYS

Row | Compound | inhibition
1 | CS(C)=O | 0% (inactive)
2 | COc1ccc(C(=O)Nc2ccccc2CCC2CCCCN2C)cc1 (stereo unspecified) | 13.3% (inactive)
3 | COc1cc(NS(C)(=O)=O)ccc1Nc1c2ccccc2nc2ccccc12 | 13.7% (inactive)
4 | COc1ccc2c(c1)C13CCCC[C@@H]1C(C2)N(C)CC3 (stereo partly specified) | -6.11% (inactive)
5 | COc1cc(N)c(Cl)cc1C(=O)N[C@@H]1CCN(CCCOc2ccc(F)cc2)C[C@@H]1OC | 83.8%
6 | CN(C/C=C/C#CC(C)(C)C)Cc1cccc2ccccc12 | 9.86% (inactive)
7 | CN(Cc1ccc(C(C)(C)C)cc1)Cc1cccc2ccccc12 | 10.8% (inactive)
8 | C=C1CC[C@H](O)C/C1=C/C=C1\CCC[C@]2(C)[C@@H]([C@H](C)CCCC(C)C)CC[C@@H]12 | 1.28% (inactive)
9 | O=C(Nc1c(Cl)cncc1Cl)c1ccc(OC(F)F)c(OCC2CC2)c1 | 61.7%
10 | C[C@]12CCC(=O)C=C1[C@@H]1C[C@@H]1[C@H]1[C@@H]3[C@@H]4C[C@@H]4[C@@]4(CCC(=O)O4)[C@@]3(C)CC[C@@H]12 | 14.4% (inactive)
11 | CCCCN(CCCC)CCC(O)c1cc2c(Cl)cc(Cl)cc2c2cc(C(F)(F)F)ccc12 (stereo unspecified) | -9.66% (inactive)
